From US7838271B2, “Microbiological method for producing amides” (priority 2001, dated 2010) come the findings set out here.

Experiment [1] relates to purified Rhodococcus sp. FZ4 nitrile hydratase. The format is biochemical. The protocol:
A solution comprising nitrile hydratase solution (0.695 μmol/min; 0.025 ml), potassium phosphate buffer (0.1 M; pH 7.0; 0.475 ml), distilled water (0.150 ml) and different potential inhibitors (0.100 ml) was incubated at 20° C. for 5 min. This was followed by the addition of 3-cyanopyridine (1.0 M; 0.250 ml). The concentration of the inhibitors in the reaction mixture was 1.0 mM. The reaction mixture was incubated at 20° C. for 10 min. The reaction was stopped by adding MeOH. The amount of nicotinamide produced was determined by means of HPLC according to Example 1.

For experiment [2], the system named is Rhodococcus sp. FZ4 nitrile hydratase. It is filed as cell-based. As to the method: (§1) Nitrile hydratase activity was determined by incubating a reaction mixture comprising 3-cyanopyridine (1.0 M; 1.0 ml), potassium phosphate buffer (0.1 M, pH 7.0; 0.5 ml) and cell suspension (0.5 ml) with stirring at 20° C. for 5 min. The reaction was stopped by adding HCI (5 M; 0.1 ml). After filtration (0.2 μm filter) of the reaction mixture, the amount of nicotinamide produced was determined by means of HPLC (Waters Spherisorb 5 μ ODS2 (4.6×150 mm); KH2P04/H3P04 (10 mM; pH 2.8)/acetonitrile=9:1 (v/v); 1 ml/min; 230 nm). The total activity is expressed as μmol of nicotinamide produced/ (min×ml) and the specific activity is expressed as μmol of nicotinamide produced/(min×ml×OD610 nm).
(§2) The preculture medium of Table 2 was inoculated with strain Rhodococcus sp. FZ4 (DSM 13597), followed by incubation with shaking at 28° C. for 1 to 2 days. The preculture was transferred into the culture medium of Table 5, which contained different inducers, and cultured with shaking at 28° C. for 3 days. Nitrile hydratase activity was determined according to Example 1. Rhodococcus sp.

The test system of a further experiment is Rhodococcus sp. FZ4. The format is cell-based. As to the method: as §2
In experiment [3] the test system is purified Rhodococcus sp. FZ4 nitrile hydratase. As to the kind of experiment: Substrate specificity of purified nitrile hydratase. The format is biochemical. As to the method: A reaction mixture comprising nitrile hydratase solution (0.695 μmol/min; 0.025 ml), different substrates (0.500 ml) and potassium phosphate buffer (0.1 M; pH 7.0; 0.475 ml) was incubated at 20° C. for 5 to 10 min. The concentrations of the substrates used were in the range from 0.015 to 0.250 M. The reaction was stopped by adding MeOH. The amount of amide produced was determined by means of HPLC.

In experiment [4] the test system is Rhodococcus sp. FZ4 nitrile hydratase. The experiment in a line: Substrate specificity of nitrile hydratase activity, resting cells. The format is cell-based. The protocol: as §1
Rhodococcus sp. FZ4 nitrile hydratase activity with respect to different substrates was determined according to Example 1, except that the appropriate substrate was used instead of 3-cyanopyridine and that the HPLC conditions were modified according to the substrate used.

For experiment [5], the system named is Rhodococcus rhodochrous J1 nitrile hydratase. The experiment in a line: Substrate specificity of nitrile hydratase activity (comparison strain). It is filed as cell-based.
[6] abbreviates: culture medium with inducer 0.2% (w/v), 28° C., 3 days, substrate 3-cyanopyridine.
Setting [7] is: culture medium with inducer 0.2% (w/v), 28° C., 3 days.

Like-named read-outs stand apart in the source and are kept apart here.

Regarding `O=C(O)CI` [Iodoacetate], in experiment [1], the Relative activity is 96.7%.
On to `NC(=O)c1ccccc1` [Benzamide], for which, in experiment [2] (setting [6]), the Specific activity is recorded as 2.12 μmol/(min × ml × OD610 nm) and the Total activity came out at 8.24 µmol/min/mL. Moreover, the Growth in the experiment with Rhodococcus sp. FZ4 (setting [7]) is listed as 3.88 OD610 nm.
As for `O=C(O)c1cc(SSc2ccc([N+](=O)[O-])c(C(=O)O)c2)ccc1[N+](=O)[O-]` [5,5′-Dithiobis(2-nitrobenzoic acid)], the Relative activity in experiment [1] was found to be 93.4%.
Take `NC(=O)c1ccncc1` [Isonicotinamide]: in experiment [2] (setting [6]), the Specific activity is reported as 2.17 μmol/(min × ml × OD610 nm) and the Total activity amounted to 10.9 µmol/min/mL. The compound further yielded a Growth with Rhodococcus sp. FZ4 (setting [7]) of 5.03 OD610 nm.
On to `CCC(N)=O` [Propionamide], for which, in experiment [2] (setting [6]), the Specific activity is given as 28.7 μmol/(min × ml × OD610 nm) and the Total activity came out at 149 µmol/min/mL. This compound also showed a Growth in the experiment on Rhodococcus sp. FZ4 (setting [7]) of 5.17 OD610 nm.
Turning to `C=C(C)C(N)=O` [Methacrylamide], in experiment [2] (setting [6]), the Specific activity is on record as 125 μmol/(min × ml × OD610 nm) and the Total activity is 569 µmol/min/mL. Moreover, the Relative activity in experiment [3] was found to be 1.39%. In the experiment on Rhodococcus sp. FZ4 (setting [7]), the Growth is listed as 4.55 OD610 nm.
Consider `CC(C)C(N)=O` [Isobutyramide], for which, in experiment [2] (setting [6]), the Specific activity is reported as 109 μmol/(min × ml × OD610 nm) and the Total activity was found to be 387 µmol/min/mL. This compound gave a Growth in the experiment with Rhodococcus sp. FZ4 (setting [7]) of 3.55 OD610 nm.
For `O=C(O)CN(CCN(CC(=O)O)CC(=O)O)CC(=O)O` [EDTA, Ethylenediaminetetraacetic acid], the Relative activity in experiment [1] came out at 100%.
Turning to `CCCCCC#N` [Caprononitrile], in experiment [2] (setting [6]), the Specific activity is reported as 23.0 μmol/(min × ml × OD610 nm) and the Total activity is 104 µmol/min/mL. Further, the Growth with Rhodococcus sp. FZ4 (setting [7]) is 4.54 OD610 nm.
For `CCCCC(N)=O` [Valeramide], in experiment [2] (setting [6]), the Specific activity is reported as 57.5 μmol/(min × ml × OD610 nm) and the Total activity turned out to be 322 µmol/min/mL. For the same compound, the Growth in the experiment with Rhodococcus sp. FZ4 (setting [7]) was found to be 5.61 OD610 nm.
As for `Oc1cccc2cccnc12` [8-Hydroxyquinoline], in experiment [1], the Relative activity is recorded as 97.8%.
Regarding `c1cnc2c(c1)ccc1cccnc12` [1,10-Phenanthroline], the Relative activity in experiment [1] is reported as 106%.
For the compound `C=CC#N` [Acrylonitrile], the Relative activity turned out to be 498% in experiment [4], 478% in experiment [5] and 774% in experiment [3]. Further, the Specific activity in experiment [2] (setting [6]) is listed as 1.81 μmol/(min × ml × OD610 nm). The Growth in the experiment with Rhodococcus sp. FZ4 (setting [7]) is given as 3.27 OD610 nm.
On to `CCN1C(=O)C=CC1=O` [N-Ethylmaleinimide], for which, in experiment [1], the Relative activity turned out to be 95.3%.
Turning to `N#Cc1ccccc1` [Benzonitrile], the Relative activity in experiment [4] is 41.7%; in experiment [5], 27%; in experiment [3], 75.6%. Further, the Specific activity in experiment [2] is 7.17 μmol/(min × ml × OD610 nm). The same compound came in with a Total activity in experiment [2] of 40.3 µmol/min/mL. Besides, the Growth in the experiment on Rhodococcus sp. FZ4 is 5.62 OD610 nm.
With `C=CC(N)=O` [Acrylamide], in experiment [2], the Specific activity is reported as 11.7 μmol/(min × ml × OD610 nm) and the Total activity is 60.5 µmol/min/mL. Further, in the experiment on Rhodococcus sp. FZ4, the Growth was 5.17 OD610 nm.
In the case of `O=S(=O)(O)c1cc(O)c(O)c(S(=O)(=O)O)c1` [Tiron], in experiment [1], the Relative activity stood at 114%.
On to `NO` [Hydroxylamine], for which the Relative activity in experiment [1] is given as 1.34%.
In the case of `CCCC#N` [Butyronitrile], the Relative activity in experiment [4] turned out to be 466%; in experiment [5], 26%; in experiment [3], 578%. Further, the Specific activity in experiment [2] (setting [6]) is given as 58.4 μmol/(min × ml × OD610 nm). Further, in experiment [2] (setting [6]), the Total activity is 307 µmol/min/mL. This compound had a Growth in the experiment on Rhodococcus sp. FZ4 (setting [7]) of 5.26 OD610 nm.
Regarding `OCCS` [2-Mercaptoethanol], in experiment [1], the Relative activity is on record as 76.3%.
In the case of `O=C(O)c1cc[c]([Hg][Cl])cc1` [p-Chloromercuribenzoic acid], the Relative activity in experiment [1] is given as 187%.
Same read-out and setting: for `O[C@H](CS)[C@H](O)CS` (racemic) [Dithiothreitol] the value was 103%.
For `CC(C)C#N` [Isobutyronitrile], in experiment [2] (setting [6]), the Specific activity is 52.1 μmol/(min × ml × OD610 nm) and the Total activity is 273 µmol/min/mL. The Growth in the experiment with Rhodococcus sp. FZ4 (setting [7]) came to 5.24 OD610 nm.
On to `N#Cc1ccccn1` [2-Cyanopyridine], for which the figures for the Relative activity in experiment [4], in experiment [5] and in experiment [3] were 39.3%, 45% and 36.7%, respectively.
`CC=CCC#N` [3-Pentenenitrile]: in experiment [2] (setting [6]), the Specific activity is listed as 13.4 μmol/(min × ml × OD610 nm) and the Total activity is 62 µmol/min/mL. In addition, in the experiment with Rhodococcus sp. FZ4 (setting [7]), the Growth was determined as 4.62 OD610 nm.
As to `C=C(C)C#N` [Methacrylonitrile], the Relative activity in experiment [4] was 3.64%; in experiment [5] it was 87%. Further, in experiment [2] (setting [6]), the Specific activity is listed as 71.5 μmol/(min × ml × OD610 nm). In experiment [2] (setting [6]), this compound gave a Total activity of 330 µmol/min/mL. In the experiment with Rhodococcus sp. FZ4 (setting [7]), this compound returned a Growth of 4.61 OD610 nm.
In the case of `CC(C)CC#N` [Isovaleronitrile], in experiment [2] (setting [6]), the Specific activity is given as 23.2 μmol/(min × ml × OD610 nm) and the Total activity worked out at 74.7 µmol/min/mL. Also, the Growth with Rhodococcus sp. FZ4 (setting [7]) is listed as 3.22 OD610 nm.
In the same order, the values of `C/C=C/C(N)=O` [Crotonamide] are 59.9 μmol/(min × ml × OD610 nm), 558 µmol/min/mL and 9.32 OD610 nm.
Take `NNc1ccccc1` [Phenylhydrazine]: the Relative activity in experiment [1] was 84.6%.
Consider `N#Cc1cccc(Cl)c1` [m-Chlorobenzonitrile], for which the Relative activity in experiment [4] is listed as 39.3%; in experiment [5] it was 43%; in experiment [3], 66.5%.
As for `CC(C)CCC#N` [Isocaprononitrile], in experiment [2] (setting [6]), the Specific activity was 28.5 μmol/(min × ml × OD610 nm) and the Total activity is 134 µmol/min/mL. Also, the Growth with Rhodococcus sp. FZ4 (setting [7]) is listed as 4.72 OD610 nm.
Consider `c1ccc(-c2ccccn2)nc1` [2,2′-Bipyridyl], for which the Relative activity in experiment [1] is given as 97.8%.
With `O=C1CCCCCN1` [ε-Caprolactam], in experiment [2] (setting [6]), the Specific activity is 9.08 μmol/(min × ml × OD610 nm) and the Total activity is 40.3 µmol/min/mL. In the experiment on Rhodococcus sp. FZ4 (setting [7]), this compound returned a Growth of 4.44 OD610 nm.
Regarding `NC(N)=O` [Urea], the Relative activity in experiment [1] is reported as 106%. For the same compound, in experiment [2] (setting [6]), the Specific activity was 0.918 μmol/(min × ml × OD610 nm) and the Total activity was found to be 5.66 µmol/min/mL. Further, in the experiment with Rhodococcus sp. FZ4 (setting [7]), the Growth came to 6.16 OD610 nm.
In the case of `N[C@@H]1CONC1=O` [D-Cycloserine], the Relative activity in experiment [1] stood at 86.3%.
For `N#Cc1ccncc1` [4-Cyanopyridine], the Relative activity in experiment [4] worked out at 98.4%; in experiment [5] it was 70%; in experiment [3], 92.8%.
Take `CCCCC#N` [Valeronitrile]: in experiment [2] (setting [6]), the Specific activity is reported as 32.4 μmol/(min × ml × OD610 nm) and the Total activity was 120 µmol/min/mL. The compound further yielded a Growth in the experiment with Rhodococcus sp. FZ4 (setting [7]) of 3.70 OD610 nm.
Taken in the same sequence, the figures for `N#CCC(N)=O` [Cyanoacetamide] were 6.50 μmol/(min × ml × OD610 nm), 30.9 µmol/min/mL and 4.75 OD610 nm.
On to `N#Cc1ccccc1Cl` [o-Chlorobenzonitrile], for which the figures for the Relative activity in experiment [4], in experiment [5] and in experiment [3] were 0%, 2.8% and 0%, respectively.
Turning to `O=S(=O)(F)Cc1ccccc1` [Phenylmethanesulfonyl fluoride], the Relative activity in experiment [1] stood at 110%.
Take `CCCC(N)=O` [Butyramide]: in experiment [2] (setting [6]), the Specific activity is 73.2 μmol/(min × ml × OD610 nm) and the Total activity came to 344 µmol/min/mL. Moreover, the Growth in the experiment with Rhodococcus sp. FZ4 (setting [7]) is 4.7 OD610 nm.
For the compound `NCCS` [Cysteamine], the Relative activity in experiment [1] is on record as 99.1%.
For the compound `N#Cc1ccc(Cl)cc1` [p-Chlorobenzonitrile], the Relative activity in experiment [4] worked out at 8.25%; in experiment [5], 13%; in experiment [3], 8.31%.
